Data taken from publication PMC8264131 (Frontiers in Pharmacology, 2021).
Where two headings read alike, the source gives them in different places. Each block holds one molecule with its values, some of them ahead of it.

Tests used:
[1] = bovine blood in vitro hemodialysis model: hemofilter clearance; type: in vitro ADME; settings: for Cl, in vitro clearance rate: ultrafiltration 0 ml/min, 37°C, corrected by hematocrit
Protocol: Hemodialysis was simulated using a Fresenius 4008H dialysis machine. After priming of the extracorporeal circuit including the dialysis membrane with 0.9% saline solution, a reservoir bag containing 2 L of 37°C warm heparinized bovine blood (provided in cooperation with the University of Veterinary Medicine Vienna after seeking authorization by the institutional and governmental ethics committee, (ZI.04/04/972,013, GZ: 68.205/0240-WF/V/3b/2016) was connected to the circuit. The blood was kept at 37°C throughout the experiment. It was mixed with 2,000 IU of low molecular weight heparin directly during the blood draw as well as during the experiment itself with a rate of 500 IU per hour. After circuit connection, the investigated drug was added to the reservoir in order to mimic plasma levels previously described in trials ([Lanese et al., 1989]; [Thalhammer et al., 1997]; [Amin et al., 1999]). […] After priming the system with blood, it was allowed to run for 30 s to allow equilibration of blood hematocrit throughout the extracorporeal circuit before the baseline sample was drawn. Due to the reduced volume compared to in vivo and the comparably large hemofilter membrane area, a considerably faster drug concentration decline was expected. Thus, pre filter, post filter and ultrafiltrate samples were collected at the end of minutes 1, 5, 10, 15, 20, 30, 40 and 60 of the run. All samples were plasma separated by centrifugation at 2000 ×vg for 7 min and the supernatant stored at −80°C for analysis.
An actual blood flow rate of 300 ml/min and a dialysate flow rate of 500 ml/min were kept as standard flow rates. Depending on previous literature, single drugs were run at different flow rates to allow external validation of the model. Ultrafiltration (corresponding to negative fluid balance/water removal during hemodialysis) was kept at 0 ml/min. […] Hemodialysation and hemofiltration experiments were performed with Baxter Gambro CAHP 170 diacetate devices, Nipro Sureflux 17UX and 21UX triacetate membranes as well as Fresenius Hemoflow F80s and FX 80 polysulphone membranes.
The measured drug plasma concentrations were analyzed to calculate the area under the curve, hemofilter clearance and the drug saturation coefficient. As removal within the hemofilter is expected to be too fast for equilibration of drugs out of the erythrocyte compartment and drug concentrations were measured in the plasma, all clearance values were calculated with a hematocrit corrected formula, in which Hc is the blood hematocrit in percent divided by 100, BFR the actual blood flow rate, Cpre the drug concentration measured before the blood enters the filter and Cpost the drug concentration measured after the filter. Additionally the formula allows for correction of blood concentration by ultrafiltration (UFR). (1−Hc)×BFR×Cpre−(Cpost(BFR−UFR))/BFR/[…]
Hematocrit corrected and not corrected clearance, total “body” clearance, volume of distribution, area under curve, elimination coefficient and half-life were evaluated for their correspondence to previously published in vivo values. Whenever previous publications declared the method of clearance calculation, the same formula was used. […] An empirical fitting of the in vitro PK curves and available in vivo PK curves was performed to gain an insight into the time relation between in vitro and in vivo.
More recent historic data on intradialytic gentamicin clearance only exists for the Baxter CAHP-210 membrane ([Sowinski et al., 2008]) and the Fresenius F80s ([Amin et al., 1999]) which are both not available anymore. Baxter however was kind enough to supply us with several CAHP-170 and […] models. To extrapolate assumed clearance of a CAHP-210, we compared clearance gains between a Nipro Sureflux 17UX and a Sureflux 21UX membrane.

[2] = cited from earlier work
Description: TABLE 2 Comparison of in vitro and in vivo clearance values.

[3] = cited from earlier work; remark: listed apart in the source
[4] = plasma protein binding in bovine plasma (ultrafiltration); settings: bovine plasma from two cows, 2000 x g
[5] = earlier publications, slightly higher bound fraction, (±3.0); ref PMC, 1972; cited from earlier work
[6] = membrane Fx80 (Fresenius high flux polysulphone, 1.8 m^2), BFR 300 ml/min, DFR 500 ml/min, bovine blood, mean, N = 12

Cl, in vitro clearance rate [1, 6]: 141.25 mL/min
Cl, in vitro clearance rate ([1]; membrane SF21UX (Nipro cellulose triacetate, 2.1 m^2), BFR 300 ml/min, DFR 500 ml/min, bovine blood, mean, N = 12): 155.76 mL/min
plasma protein binding, Bovine ([4]; Centrisart I devices, 20 min, room temperature, HPLC): 9.7%
Molecule: C[C@@H](O)[C@H]1C(=O)N2C(C(=O)O)=C(S[C@@H]3CN[C@H](CNS(N)(=O)=O)C3)[C@H](C)[C@H]12 [Doripenem, doripenem]
Clin vivo, clearance as described in referenced publication ([2]; human, in vivo): 148.61 mL/min
plasma protein binding, Human [3]: 8.0%

Molecule: CNC(C)C1CCC(N)C(OC2C(N)CC(N)C(OC3OCC(C)(O)C(NC)C3O)C2O)O1 (centres unmarked) [Gentamicin, gentamicin]
Cl, in vitro clearance rate ([1]; membrane CAHP-170 (Baxter cellulose diacetate, 1.7 m^2), BFR 400 ml/min, DFR 800 ml/min, bovine blood, mean, N = 16): 90.12 mL/min
Cl, in vitro clearance rate ([1]; membrane F80s (Fresenius high flux polysulphone, 1.8 m^2), BFR 300 ml/min, DFR 500 ml/min, bovine blood, mean, N = 12): 122.37 mL/min
Cl, in vitro clearance rate ([1]; membrane F80s (Fresenius high flux polysulphone, 1.8 m^2), BFR 400 ml/min, DFR 800 ml/min, bovine blood, mean, N = 12): 137.62 mL/min
Cl, in vitro clearance rate [1, 6]: 142.13 mL/min
Cl, in vitro clearance rate ([1]; membrane Fx80 (Fresenius high flux polysulphone, 1.8 m^2), BFR 400 ml/min, DFR 800 ml/min, bovine blood, mean, N = 12): 187.90 mL/min
Cl, in vitro clearance rate ([1]; membrane SF17UX (Nipro cellulose triacetate, 1.7 m^2), BFR 400 ml/min, DFR 800 ml/min, bovine blood, mean, N = 12): 160.75 mL/min
Cl, in vitro clearance rate ([1]; membrane SF21E (Nipro Sureflux-21E medium-flux cellulose triacetate, 2.1 m^2), BFR 400 ml/min, DFR 800 ml/min, 2 L heparinized bovine blood, mean, N = 12): 131.52 mL/min
Cl, in vitro clearance rate ([1]; membrane SF21UX (Nipro cellulose triacetate, 2.1 m^2), BFR 400 ml/min, DFR 800 ml/min, bovine blood, mean, N = 17): 178.25 mL/min

Molecule: CN[C@H](CC(C)C)C(=O)N[C@H]1C(=O)N[C@@H](CC(N)=O)C(=O)N[C@H]2C(=O)N[C@H]3C(=O)N[C@H](C(=O)N[C@H](C(=O)O)c4cc(O)cc(O)c4-c4cc3ccc4O)[C@H](O)c3ccc(c(Cl)c3)Oc3cc2cc(c3O[C@@H]2O[C@H](CO)[C@@H](O)[C@H](O)[C@H]2O[C@H]2C[C@](C)(N)[C@H](O)[C@H](C)O2)Oc2ccc(cc2Cl)[C@H]1O [Vancomycin, vancomycin]
Clin vivo, clearance as described in referenced publication ([2]; hemodialysis patients, membrane F60s, ref Lanese et al. (1989)): 73.0 mL/min
Clin vivo, clearance as described in referenced publication ([2]; hemodialysis patients, membrane F80s, ref Lanese et al. (1989)): 85.2 mL/min
plasma protein binding, Human ([3]; previously published value, ref Butterfield et al. (2011)): 41.5%
bound fraction [5]: 54.8%
plasma protein binding, Bovine ([4]; Millipore Centrefree device, 1 ml aliquot, 10 min, Cobas VANC3 assay): 43.6%

Cl, in vitro clearance rate ([1]; membrane F60s (Fresenius polysulphone), BFR 250 ml/min, DFR 500 ml/min, bovine blood, mean, N = 16): 25.50 mL/min
Clin vitro, non hematocrit corrected clearance ([1]; membrane F60s, bovine blood in vitro hemodialysis, non hematocrit corrected, mean): 38.95 mL/min
Cl, in vitro clearance rate ([1]; membrane Fx80 (Fresenius polysulphone), BFR 250 ml/min, DFR 500 ml/min, bovine blood, mean, N = 12): 43.49 mL/min
clearance, simulation with Sureflux SF 21E triacetate dialyzer ([1]; membrane Sureflux SF 21E triacetate, bovine blood in vitro hemodialysis, flow rates not given): 17.6 mL/min
Molecule: teicoplanin
Clin vivo, non-hematocrit corrected clearance ([2]; human, in vivo): 39.70 mL/min
